# In PubChem BioAssay (NCI):
#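 Values below derive from 48-hour exposures of cells grown in 96-well plates, with endpoints linearly interpolated between the two concentrations bracketing the appropriate inhibition level. TGI marks complete inhibition of growth.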
# Tests used:
# Assay in all cases: growth of human tumour cells (NCI), 48 h
# [1] = tested on: OVCAR-4 ovarian
# [2] = tested on: U251 CNS
# [3] = tested on: HCC-2998 colon
# [4] = tested on: A549 NSCLC
# [5] = tested on: SK-MEL-2 melanoma
# [6] = tested on: MDA-MB-435
# [7] = tested on: NCI-H460 lung
# [8] = tested on: NCI-H226 lung
# [9] = tested on: EKVX NSCLC
# [10] = tested on: NCI/ADR-RES ovarian
# [11] = tested on: T-47D breast
# [12] = tested on: SK-MEL-5 melanoma
# [13] = tested on: BT-549 breast
# [14] = tested on: SNB-75 CNS
Compound,TGI [1] [µM],TGI [2] [µM],TGI [3] [µM],TGI [4] [µM],TGI [5] [µM],TGI [6] [µM],TGI [7] [µM],TGI [8] [µM],TGI [9] [µM],TGI [10] [µM],TGI [11] [µM],TGI [12] [µM],TGI [13] [µM],TGI [14] [µM]
NS(=O)(=O)c1nnc(NC(=O)C23CC4CC(CC(C4)C2)C3)s1,3.74,> 100,> 100,> 100,> 100,> 100,> 100,> 100,> 100,> 100,> 100,> 100,> 100,
COC(=O)C1Cc2ccc(O)c(O)c2CN1 (stereo unspecified),39.3,31.2,> 100,> 100,31.2,30.5,> 100,> 100,> 100,48.6,> 100,28.5,32.2,34.4
S=C(N/N=C(\c1ccccc1)c1ccccn1)NC1CCCCC1,> 100,> 100,> 100,> 100,> 100,> 100,> 100,> 100,> 100,1.59,> 100,> 100,> 100,> 100
COC(=O)/C=C\C(C#N)(C#N)N=Cc1cccc(OC)c1,18.8,32.2,34.4,35.1,32.4,13.5,40.8,28.7,23.8,35.7,18.9,31.4,20.4,29.6
CCCNC(=S)N/N=C(\C)c1ccc(S(=O)(=O)N(C)c2ccccc2)cc1,> 100,> 78,> 100,> 100,> 100,> 100,> 100,> 75.6,> 100,> 100,> 100,> 100,> 100,> 58.4
COc1cccc(C23CCCC(C2)NCC3Br)c1OC (stereo unspecified),> 100,> 100,,> 100,> 100,> 100,> 100,5.37,> 100,> 100,> 100,13.1,92.3,> 100
O=[N+]([O-])C(/C=C(\Cl)[N+](=O)[O-])=C1Nc2ccccc2N1,> 100,> 100,> 100,> 100,,> 100,> 100,97.2,> 100,> 100,69,> 100,> 100,> 100
CCNC(=O)c1cc(Cl)ccc1NC(=O)C12CC3CC(CC(C3)C1)C2,> 100,> 100,,> 100,81.9,> 100,> 100,> 100,60.6,> 100,> 100,76.1,> 100,
COc1cc(-c2nc3ccc(N4CCN(C)CC4)cc3[nH]2)c(OC)c2[nH]c(COC(C)=O)nc12,> 100,> 100,,> 100,> 100,> 100,> 100,> 100,> 100,> 100,> 100,> 100,> 100,82
CCOC(=O)c1nc2ccc(C(F)(F)F)cc2nc1Nc1cc(OC)c(OC)c(OC)c1,,,> 100,> 100,,> 100,> 100,,> 100,> 100,> 100,> 100,> 100,> 100
CC(O)C1(CNc2cc(Cl)nc(N)n2)CCCCC1 (stereo unspecified),> 100,> 100,,> 100,> 100,> 100,> 100,> 100,> 100,> 100,> 100,> 100,> 100,> 100
COC1CCON1C(=O)c1ccccc1 (stereo unspecified),> 10,,> 10,> 10,> 10,> 10,> 10,> 10,> 10,> 10,> 10,> 10,> 10,> 10
C1CSCCSCCCSC2CCCCC2SC1 (stereo unspecified),> 100,> 100,> 100,> 100,,> 100,> 100,,> 100,> 100,> 100,> 100,> 100,> 100
CC1(c2sccc2Cl)CC(c2sccc2Cl)=C(C#N)C(=C(C#N)C#N)N1 (stereo unspecified),66.1,33.8,29.4,75.6,39.3,48.3,43.6,,34,57.8,42.1,33.3,32.3,
CCOP(=O)(OCC)/C(C#N)=C/c1cccn1C(C)C,,> 100,> 100,> 100,> 100,> 100,> 100,> 100,> 100,> 100,> 100,> 100,> 100,> 100
S=C1NC2=C(COc3ccccc32)C(c2ccc(Cl)cc2)N1 (stereo unspecified),,,,48.2,29,58.2,,36,34.2,41.3,45,30.5,41.5,38
COC(=O)C1CCN(C(=O)OC(C)(C)C)CC1,> 100,> 100,> 100,> 100,> 100,> 100,> 100,,> 100,> 100,> 100,> 100,> 100,> 100
